Assay results: patent publication US20230348496A1, “PESTICIDALLY ACTIVE HETEROCYCLIC DERIVATIVES WITH SULFUR CONTAINING SUBSTITUENTS” (SYNGENTA CROP PROTECTION AG, priority 2020, published 2023)

Legend:
Format in all cases: in vivo
[1] = system: Chilo suppressalis (Striped Rice Stemborer); assay: Activity against Chilo suppressalis (striped rice stemborer); settings: 144 h, application rate 200 ppm, artificial diet, L2 larvae, 6 days after infestation
Experimental: Example B5: Activity Against Chilo suppressalis (Striped Rice Stemborer)
24-well microtiter plates with artificial diet were treated with aqueous test solutions prepared from 10′000 ppm DMSO stock solutions by pipetting. After drying, the plates were infested with L2 larvae (6-8 per well). The samples were assessed for mortality, anti-feeding effect, and growth inhibition in comparison to untreated samples 6 days after infestation. Control of Chilo suppressalis by a test sample is given when at least one of the categories mortality, anti-feedant effect, and growth inhibition is higher than the untreated sample.

[2] = system: Nilaparvata lugens (Brown Plant Hopper); assay: Activity against Nilaparvata lugens (brown plant hopper), larvicide, systemic into water; settings: 168 h, application rate 12.5 ppm, rice plants in nutritive solution, N3 nymphs, 7 days after infestation
Experimental: Example B9: Activity Against Nilaparvata lugens (Brown Plant Hopper) Larvicide, Systemic into Water
Rice plants cultivated in a nutritive solution were treated with the diluted test solutions into nourishing cultivation system. 1 day after application plants were infested with ˜20 N3 nymphs. 7 days after infestation samples were assessed for mortality and growth regulation.

[3] = system: Spodoptera littoralis (Egyptian Cotton Leaf Worm); assay: Activity against Spodoptera littoralis (Egyptian cotton leaf worm); settings: foliar, 72 h, application rate 200 ppm, sprayed cotton leaf discs, L1 larvae, 3 days after infestation
Experimental: Example B3: Activity Against Spodoptera littoralis (Egyptian Cotton Leaf Worm)
Cotton leaf discs were placed onto agar in 24-well microtiter plates and sprayed with aqueous test solutions prepared from 10′000 ppm DMSO stock solutions. After drying the leaf discs were infested with five L1 larvae. The samples were assessed for mortality, anti-feeding effect, and growth inhibition in comparison to untreated samples 3 days after infestation. Control of Spodoptera littoralis by a test sample is given when at least one of the categories mortality, anti-feedant effect, and growth inhibition is higher than the untreated sample.

[4] = system: Myzus persicae (Green Peach Aphid); assay: Activity against Myzus persicae (green peach aphid), feeding/contact activity; settings: foliar, 144 h, application rate 200 ppm, sprayed sunflower leaf discs, aphid population of mixed ages, 6 days after infestation
Experimental: Example B2: Activity Against Myzus persicae (Green Peach Aphid) Feeding/Contact Activity
Sunflower leaf discs were placed onto agar in a 24-well microtiter plate and sprayed with aqueous test solutions prepared from 10′000 ppm DMSO stock solutions. After drying, the leaf discs were infested with an aphid population of mixed ages. The samples were assessed for mortality 6 days after infestation.

[5] = system: Carpocapsa (Cydia) Pomonella (Codling Moth); assay: Activity against Carpocapsa (Cydia) pomonella (codling moth), larvicide, feeding/contact; settings: 336 h, application rate 12.5 ppm, sprayed diet cubes, L1 larvae, 14 days after infestation
Experimental: Example B10: Activity Against Carpocapsa (Cydia) Pomonella (Codling Moth) Larvicide, Feeding/Contact
Diet cubes coated with paraffin were sprayed with diluted test solutions in an application chamber. After drying off the treated cubes (10 replicates) were infested with 1 L1 larvae. Samples were incubated at 26-27° C. and checked 14 days after infestation for mortality and growth inhibition.

[6] = system: Plutella xylostella (Diamond Back Moth); assay: Activity against Plutella xylostella (diamond back moth); settings: 192 h, application rate 200 ppm, artificial diet, Plutella eggs, 8 days after infestation, read-out: effect in at least one of the two categories (mortality or growth inhibition)
Experimental: Example B8: Activity Against Plutella xylostella (Diamond Back Moth)
24-well microtiter plates with artificial diet were treated with aqueous test solutions prepared from 10′000 ppm DMSO stock solutions by pipetting. After drying, Plutella eggs were pipetted through a plastic stencil onto a gel blotting paper and the plate was closed with it. The samples were assessed for mortality and growth inhibition in comparison to untreated samples 8 days after infestation.

[7] = system: Euschistus heros (Neotropical Brown Stink Bug); assay: Activity against Euschistus heros (neotropical brown stink bug); settings: 120 h, application rate 200 ppm, sprayed soybean leaves, N2 nymphs, 5 days after infestation, read-out: effect in at least one of the two categories (mortality or growth inhibition)
Experimental: Example B6: Activity Against Euschistus heros (Neotropical Brown Stink Bug)
Soybean leaves on agar in 24-well microtiter plates were sprayed with aqueous test solutions prepared from 10′000 ppm DMSO stock solutions. After drying the leaves were infested with N2 nymphs. The samples were assessed for mortality and growth inhibition in comparison to untreated samples 5 days after infestation.

[8] = system: Diabrotica Balteata (Corn Root Worm); assay: Activity against Diabrotica balteata (corn root worm), sprayed maize sprouts; settings: 96 h, application rate 200 ppm, L2 larvae on sprayed maize sprouts, 4 days after infestation, read-out: effect in at least one of the two categories (mortality or growth inhibition)
Experimental: Example B1: Activity Against Diabrotica Balteata (Corn Root Worm)
Maize sprouts placed onto an agar layer in 24-well microtiter plates were treated with aqueous test solutions prepared from 10′000 ppm DMSO stock solutions by spraying. After drying, the plates were infested with L2 larvae (6 to 10 per well). The samples were assessed for mortality and growth inhibition in comparison to untreated samples 4 days after infestation.

[9] = system: Bemisia tabaci (Cotton White Fly); assay: Activity against Bemisia tabaci (cotton white fly); settings: foliar, 144 h, application rate 200 ppm, sprayed cotton leaf discs, adult white flies, 6 days after incubation
Experimental: Example B4: Activity Against Bemisia tabaci (Cotton White Fly)
Cotton leaf discs were placed on agar in 24-well microtiter plates and sprayed with aqueous test solutions prepared from 10′000 ppm DMSO stock solutions. After drying the leaf discs were infested with adult white flies. The samples were checked for mortality 6 days after incubation.

[10] = system: Frankliniella occidentalis (Western Flower Thrips); assay: Activity against Frankliniella occidentalis (western flower thrips); settings: foliar, 168 h, application rate 200 ppm, sprayed sunflower leaf discs, population of mixed ages, 7 days after infestation
Experimental: Example B7: Activity Against Frankliniella occidentalis (Western Flower Thrips)
Sunflower leaf discs were placed on agar in 24-well microtiter plates and sprayed with aqueous test solutions prepared from […] stock solutions. After drying the leaf discs were infested with a Frankliniella population of mixed ages. The samples were assessed for mortality 7 days after infestation.

[11] = system: Myzus persicae (Green Peach Aphid); assay: Myzus persicae (green peach aphid), systemic activity; settings: 144 h, test rate 24 ppm, roots of infested pea seedlings in test solution, 6 days
Experimental: Example B11: Myzus persicae (Green Peach Aphid). Systemic Activity
Roots of pea seedlings infested with an aphid population of mixed ages were placed directly into aqueous test solutions prepared from 10′000 DMSO stock solutions. The samples were assessed for mortality 6 days after placing seedlings into test solutions.

CCS(=O)(=O)c1c(N2Cc3ncc(C(F)(F)F)cc3C2=O)nn2cc(C3CC3)ccc12 [Compound P1, 6-(6-cyclopropyl-3-ethylsulfonyl-pyrazolo[1,5-a]pyridin-2-yl)-3-(trifluoromethyl)-7H-pyrrolo[3,4-b]pyridin-5-one]
≥ 80%: percent control (mortality, anti-feedant effect or growth inhibition) at 200 ppm [1] | mortality at 12.5 ppm [2] | percent control (mortality, anti-feedant effect or growth inhibition) at 200 ppm [3] | mortality at 200 ppm [4] | mortality at 12.5 ppm [5] | percent effect (mortality or growth inhibition) at 200 ppm [6] | percent effect (mortality or growth inhibition) at 200 ppm [7] | percent effect (mortality or growth inhibition) at 200 ppm [8]

CCS(=O)(=O)c1c(N2Cc3ccc(OC(F)(F)F)cc3C2=O)nn2ccc(C(F)(F)F)cc12 [Compound P2, 2-[3-ethylsulfonyl-5-(trifluoromethyl)pyrazolo[1,5-a]pyridin-2-yl]-6-(trifluoromethoxy)isoindolin-1-one]
≥ 80%: percent control (mortality, anti-feedant effect or growth inhibition) at 200 ppm [1] | percent control (mortality, anti-feedant effect or growth inhibition) at 200 ppm [3] | mortality at 200 ppm [4] | mortality at 200 ppm [9] | mortality at 12.5 ppm [5] | percent effect (mortality or growth inhibition) at 200 ppm [6] | percent effect (mortality or growth inhibition) at 200 ppm [8]

CCS(=O)(=O)c1c(N2Cc3ccc(S(=O)(=O)C(F)(F)F)cc3C2=O)nn2ccc(C(F)(F)F)cc12 [Compound P3, 2-[3-ethylsulfonyl-5-(trifluoromethyl)pyrazolo[1,5-a]pyridin-2-yl]-6-(trifluoromethylsulfonyl)isoindolin-1-one]
≥ 80%: percent control (mortality, anti-feedant effect or growth inhibition) at 200 ppm [1] | mortality at 200 ppm [10] | percent control (mortality, anti-feedant effect or growth inhibition) at 200 ppm [3] | mortality at 200 ppm [4] | mortality at 12.5 ppm [5] | percent effect (mortality or growth inhibition) at 200 ppm [6] | percent effect (mortality or growth inhibition) at 200 ppm [8]

CCS(=O)(=O)c1c(N2Cc3ncc(C(F)(F)F)cc3C2=O)nn2cc(C3(C#N)CC3)ccc12 [Compound P4, 1-[3-ethylsulfonyl-2-[5-oxo-3-(trifluoromethyl)-7H-pyrrolo[3,4-b]pyridin-6-yl]pyrazolo[1,5-a]pyridin-6-yl]cyclopropanecarbonitrile]
≥ 80%: percent control (mortality, anti-feedant effect or growth inhibition) at 200 ppm [1] | mortality at 200 ppm [10] | mortality at 12.5 ppm [2] | percent control (mortality, anti-feedant effect or growth inhibition) at 200 ppm [3] | mortality at 200 ppm [4] | mortality at 12.5 ppm [5] | percent effect (mortality or growth inhibition) at 200 ppm [6] | percent effect (mortality or growth inhibition) at 200 ppm [7] | percent effect (mortality or growth inhibition) at 200 ppm [8]

CCS(=O)(=O)c1c(N2Cc3ncc(C(F)(F)F)cc3C2=O)nn2ccc(C(F)(F)F)cc12 [Compound P5, 6-[3-ethylsulfonyl-5-(trifluoromethyl)pyrazolo[1,5-a]pyridin-2-yl]-3-(trifluoromethyl)-7H-pyrrolo[3,4-b]pyridin-5-one]
≥ 80%: percent control (mortality, anti-feedant effect or growth inhibition) at 200 ppm [1] | mortality at 12.5 ppm [2] | percent control (mortality, anti-feedant effect or growth inhibition) at 200 ppm [3] | mortality at 12.5 ppm [5] | percent effect (mortality or growth inhibition) at 200 ppm [6] | percent effect (mortality or growth inhibition) at 200 ppm [7] | percent effect (mortality or growth inhibition) at 200 ppm [8]

CCS(=O)(=O)c1c(N2Cc3ncc(C(F)(F)F)cc3C2=O)nn2cc(C(F)(F)F)ccc12 [Compound P6, 6-[3-ethylsulfonyl-6-(trifluoromethyl)pyrazolo[1,5-a]pyridin-2-yl]-3-(trifluoromethyl)-7H-pyrrolo[3,4-b]pyridin-5-one]
≥ 80%: percent control (mortality, anti-feedant effect or growth inhibition) at 200 ppm [1] | mortality at 12.5 ppm [2] | percent control (mortality, anti-feedant effect or growth inhibition) at 200 ppm [3] | mortality at 200 ppm [4] | mortality at 12.5 ppm [5] | percent effect (mortality or growth inhibition) at 200 ppm [6] | percent effect (mortality or growth inhibition) at 200 ppm [8]

CCS(=O)(=O)c1c(N2Cc3ncc(C(F)(F)F)cc3C2=O)nn2cc(C(C)(C)C#N)ccc12 [Compound P7, 2-[3-ethylsulfonyl-2-[5-oxo-3-(trifluoromethyl)-7H-pyrrolo[3,4-b]pyridin-6-yl]pyrazolo[1,5-a]pyridin-6-yl]-2-methyl-propanenitrile]
≥ 80%: percent control (mortality, anti-feedant effect or growth inhibition) at 200 ppm [1] | mortality at 200 ppm [10] | percent control (mortality, anti-feedant effect or growth inhibition) at 200 ppm [3] | mortality at 200 ppm [4] | percent effect (mortality or growth inhibition) at 200 ppm [6] | mortality at 24 ppm [11] | percent effect (mortality or growth inhibition) at 200 ppm [7] | percent effect (mortality or growth inhibition) at 200 ppm [8]
